What all share (experiment): filter binding kinase assay
What all share (format): biochemical

For assay [1], the target named is T1, PIM2 (Homo sapiens, UniProt Q9P1W9).
T1 construct: purchased
As to conditions: derived from % inhibition at 1 μM. An outline of the steps: (§1)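 Radioactivity retained on P81 phosphocellulose filters is the read-out. Before the reaction begins, test substance sits with kinase and substrate for 5 minutes at room temperature. The ATP solution added is 5, 20 or 50 […] according to the kinase, and acid quench ends the reaction.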

Assay [2] deals with T2, EPHB3 (Homo sapiens, UniProt P54753).
T2 construct: purchased
T2 sequence (P54753 34-998): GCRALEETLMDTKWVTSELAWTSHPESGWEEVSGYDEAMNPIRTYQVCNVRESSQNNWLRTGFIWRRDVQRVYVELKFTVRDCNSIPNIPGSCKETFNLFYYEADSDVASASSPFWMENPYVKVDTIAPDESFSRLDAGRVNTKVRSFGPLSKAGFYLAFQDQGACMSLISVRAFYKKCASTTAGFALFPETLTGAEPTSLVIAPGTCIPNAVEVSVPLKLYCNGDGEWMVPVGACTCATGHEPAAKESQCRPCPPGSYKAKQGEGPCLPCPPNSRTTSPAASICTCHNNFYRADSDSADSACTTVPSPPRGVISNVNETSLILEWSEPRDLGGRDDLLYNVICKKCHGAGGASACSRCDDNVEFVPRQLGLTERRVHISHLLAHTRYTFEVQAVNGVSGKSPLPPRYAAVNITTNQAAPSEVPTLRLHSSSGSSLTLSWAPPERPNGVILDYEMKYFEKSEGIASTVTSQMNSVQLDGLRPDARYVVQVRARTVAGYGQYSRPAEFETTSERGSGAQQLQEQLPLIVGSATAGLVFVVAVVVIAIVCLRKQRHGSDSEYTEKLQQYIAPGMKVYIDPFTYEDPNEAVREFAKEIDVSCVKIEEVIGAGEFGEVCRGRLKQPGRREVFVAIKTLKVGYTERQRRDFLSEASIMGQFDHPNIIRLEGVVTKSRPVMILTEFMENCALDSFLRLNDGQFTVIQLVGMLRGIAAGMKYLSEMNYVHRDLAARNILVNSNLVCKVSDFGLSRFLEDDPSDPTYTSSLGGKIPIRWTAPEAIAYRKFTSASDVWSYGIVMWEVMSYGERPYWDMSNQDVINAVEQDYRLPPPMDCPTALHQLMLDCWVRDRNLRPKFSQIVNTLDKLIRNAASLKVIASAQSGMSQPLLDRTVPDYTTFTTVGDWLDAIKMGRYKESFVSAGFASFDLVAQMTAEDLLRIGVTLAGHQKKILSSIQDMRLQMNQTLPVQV
The settings on record: derived from % inhibition at 1 μM. An outline of the steps:
as §1

For assay [3], the target named is T3, MAPK1 (Homo sapiens, UniProt P28482).
T3 construct: purchased
T3 sequence (P28482 whole entry, species assumed): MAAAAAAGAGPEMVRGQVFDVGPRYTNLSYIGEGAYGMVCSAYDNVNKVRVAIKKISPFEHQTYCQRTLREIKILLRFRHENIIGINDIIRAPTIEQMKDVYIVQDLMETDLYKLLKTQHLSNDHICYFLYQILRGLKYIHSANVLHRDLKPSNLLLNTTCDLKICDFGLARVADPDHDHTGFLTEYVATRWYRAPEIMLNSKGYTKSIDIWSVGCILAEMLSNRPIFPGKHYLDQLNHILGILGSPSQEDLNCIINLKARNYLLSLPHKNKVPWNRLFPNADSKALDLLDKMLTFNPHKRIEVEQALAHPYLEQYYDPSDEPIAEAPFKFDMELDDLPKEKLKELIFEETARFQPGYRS
As to conditions: derived from % inhibition at 1 μM; first MAPK1 line. The procedure, abridged: as §1

The target of assay [4] is T4, IKBKE (Homo sapiens, UniProt Q14164).
T4 construct: purchased
T4 sequence (Q14164 1-716): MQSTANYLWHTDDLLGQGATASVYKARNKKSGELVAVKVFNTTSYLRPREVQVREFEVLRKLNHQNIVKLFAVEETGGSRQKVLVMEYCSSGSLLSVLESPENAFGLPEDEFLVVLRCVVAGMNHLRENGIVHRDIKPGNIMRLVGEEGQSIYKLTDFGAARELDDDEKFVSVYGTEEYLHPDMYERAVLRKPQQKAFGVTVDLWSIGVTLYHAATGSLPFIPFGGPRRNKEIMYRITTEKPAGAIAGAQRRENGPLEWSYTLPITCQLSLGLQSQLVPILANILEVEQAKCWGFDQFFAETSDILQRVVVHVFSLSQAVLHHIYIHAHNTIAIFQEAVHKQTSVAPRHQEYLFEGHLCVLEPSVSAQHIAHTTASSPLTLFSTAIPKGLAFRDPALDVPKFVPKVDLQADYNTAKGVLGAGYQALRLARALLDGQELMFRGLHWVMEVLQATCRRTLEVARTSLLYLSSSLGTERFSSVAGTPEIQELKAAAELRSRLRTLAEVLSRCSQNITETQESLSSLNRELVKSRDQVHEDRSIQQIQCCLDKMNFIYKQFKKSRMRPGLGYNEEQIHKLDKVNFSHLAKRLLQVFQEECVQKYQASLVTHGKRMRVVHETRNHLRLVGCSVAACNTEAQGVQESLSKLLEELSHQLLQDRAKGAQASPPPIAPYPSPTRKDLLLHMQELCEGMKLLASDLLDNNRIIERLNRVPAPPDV
The settings on record: derived from % inhibition at 1 μM. An outline of the steps: as §1

For assay [5], the target named is T5, PAK2 (Homo sapiens, UniProt Q13177).
T5 construct: purchased
T5 sequence (Q13177 whole entry, species assumed): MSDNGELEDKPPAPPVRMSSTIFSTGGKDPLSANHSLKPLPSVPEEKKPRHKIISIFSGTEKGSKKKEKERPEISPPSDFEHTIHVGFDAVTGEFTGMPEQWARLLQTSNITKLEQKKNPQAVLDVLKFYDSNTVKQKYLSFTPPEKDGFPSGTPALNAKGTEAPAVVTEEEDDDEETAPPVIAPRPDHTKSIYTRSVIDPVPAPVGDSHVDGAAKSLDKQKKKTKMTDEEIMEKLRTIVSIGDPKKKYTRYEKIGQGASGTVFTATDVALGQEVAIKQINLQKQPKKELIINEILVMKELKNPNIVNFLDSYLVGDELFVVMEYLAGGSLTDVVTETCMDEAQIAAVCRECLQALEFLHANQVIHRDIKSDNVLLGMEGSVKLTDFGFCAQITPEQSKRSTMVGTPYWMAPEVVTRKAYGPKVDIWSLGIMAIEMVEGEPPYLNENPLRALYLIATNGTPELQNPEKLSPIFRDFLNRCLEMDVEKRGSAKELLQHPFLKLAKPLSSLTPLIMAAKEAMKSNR
The settings on record: derived from % inhibition at 1 μM. An outline of the steps:
as §1

Assay [6] deals with T6, CHEK1 (CHK1) (Homo sapiens, UniProt O14757).
T6 construct: purchased
T6 sequence (O14757 1-476): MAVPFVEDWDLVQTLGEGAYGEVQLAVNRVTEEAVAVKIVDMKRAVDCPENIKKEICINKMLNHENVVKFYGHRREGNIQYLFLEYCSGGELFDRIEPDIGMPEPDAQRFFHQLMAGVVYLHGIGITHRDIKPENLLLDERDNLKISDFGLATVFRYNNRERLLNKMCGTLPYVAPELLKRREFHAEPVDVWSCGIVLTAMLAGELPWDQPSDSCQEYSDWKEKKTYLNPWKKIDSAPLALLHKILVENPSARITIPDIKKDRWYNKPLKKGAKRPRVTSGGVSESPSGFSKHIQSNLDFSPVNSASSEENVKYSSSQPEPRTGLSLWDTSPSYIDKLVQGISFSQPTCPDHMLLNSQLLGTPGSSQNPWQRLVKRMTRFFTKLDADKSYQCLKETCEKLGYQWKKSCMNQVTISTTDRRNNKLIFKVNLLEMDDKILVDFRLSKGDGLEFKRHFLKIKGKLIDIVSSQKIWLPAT
As to conditions: for IC50: derived from % inhibition at 1 μM. An outline of the steps: as §1

The structures appear in SMILES notation.

The values that follow come from patent US8703961B2, “Thiazole derivatives for the treatment of diseases such as cancer” (Merck Patent GmbH, priority 2009, dated 2014).

T1 sequence (Q9P1W9 whole entry, species assumed): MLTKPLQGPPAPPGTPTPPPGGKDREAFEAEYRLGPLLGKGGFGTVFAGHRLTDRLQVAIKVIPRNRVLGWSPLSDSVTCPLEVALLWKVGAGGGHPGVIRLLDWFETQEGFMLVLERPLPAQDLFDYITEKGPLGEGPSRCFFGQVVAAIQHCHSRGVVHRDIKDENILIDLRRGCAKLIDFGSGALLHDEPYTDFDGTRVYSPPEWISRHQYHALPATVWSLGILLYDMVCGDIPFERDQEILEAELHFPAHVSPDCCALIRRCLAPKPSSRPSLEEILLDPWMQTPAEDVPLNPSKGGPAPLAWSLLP

For orientation: IC50 means the point on the concentration scale where inhibition reaches its midpoint. Lower therefore signals greater potency in that assay. In the case of `c1ccc(Cc2c[nH]c3ncsc23)cc1` [Compound A7, 6-benzyl-4H-pyrrolo[2,3-d]thiazole], the IC50 in assay [1] was greater than 1 µM; in assay [2], greater than 1 µM; in assay [3] it was greater than 1 µM; in assay [4], 10 to 100 µM; in assay [5] it was 1 to 10 µM; in assay [6], greater than 1 µM.

For `Nc1ncsc1C#Cc1cnc2[nH]ccc2c1` [Compound A22, 5-(1H-pyrrolo[2,3-b]pyridin-5-ylethynyl)thiazol-4-ylamine], the concentration for half-maximal inhibition (IC50) in assay [1] is 10 to 100 µM; in assay [2], 10 to 100 µM; in assay [3], 10 to 100 µM; in assay [4], greater than 1 µM; in assay [5], greater than 1 µM; in assay [6] it was 0.01 to 1 µM. In assay [6] (read-out: residual kinase activity CHK1), the remaining activity at 1 µM stood at 40%.

Take `CC(C)(C)OC(=O)Nc1nc(-c2ccncc2)sc1C#CCN1CCOCC1` [Compound A25, tert-butyl[5-(3-morpholin-4-ylprop-1-ynyl)-2-pyridin-4-ylthiazol-4-yl]-carbamate]: the concentration for half-maximal inhibition (IC50) in assay [1] is 1 to 10 µM; in assay [2], greater than 1 µM; in assay [3], greater than 1 µM; in assay [4], 1 to 10 µM; in assay [5] it was greater than 1 µM; in assay [6], 10 to 100 µM.

On to `CC(C)(C)OC(=O)Nc1ncsc1C#CCN1C(=O)c2ccccc2C1=O` [Compound A26, tert-butyl{5-[3-(1,3-dioxo-1,3-dihydroisoindol-2-yl)prop-1-ynyl]-thiazol-4-yl}carbamate], for which the 50% inhibitory concentration (IC50) in assay [1] was greater than 1 µM; in assay [2] it was 1 to 10 µM; in assay [3], 10 to 100 µM; in assay [4] it was 10 to 100 µM; in assay [5], greater than 1 µM; in assay [6], 10 to 100 µM.

`Nc1ncsc1C#Cc1cccc(O)c1` [Compound A27, 3-(4-aminothiazol-5-ylethynyl)phenol]: the IC50 was 1 to 10 µM in assay [1]; 1 to 10 µM in assay [2]; 1 to 10 µM in assay [3]; greater than 1 µM in assay [4]; greater than 1 µM in assay [5]; 10 to 100 µM in assay [6].
